Drawing on patent EP2706118A1, “Method for the production of primary amines” (BASF SE, priority 2012, dated 2014), this text covers solubility for 1 molecule.

The series is described as follows: Solubility in the aqueous reaction mixture (remark in reaction conditions). Type of series: physicochemical. The settings on record: ~10 mM in 20 mM bicine-buffer (pH 8.8), used an emulsion. As for the experimental part:
• ~10 mM BDG-Aldehyde (very low solubility, used an emulsion) • 10 mM L-alanine • 20 mM bicine-buffer (pH 8.8) • Cv ω-TA (0.75 mg) • Total volume: 1 ml • c) The conversion of BDG-alcohol to BDG-amine by ADH + ω-TAs was confirmed by LC-MS (Figure 3 C) and thin layer chromatography (Figure 4, lanes 1-3).

With `CCCCOCCOCC=O` [BDG-Aldehyde], the solubility entry is “very low”.
